Results from patent publication US11028073B2, “Butylphthalide-telmisartan hybrids, preparation method and application thereof” (GUANGDONG LONGFU MEDICINE CO., LTD., priority 2017, dated 2021).

Key:
AMPK = assay: Western blot of phosphorylated AMPK (p-AMPK) in cerebral cortex at the infarct side of tMCAO rats; type: in vivo, rat; details: Compound C 20 mg/kg i.p. 30 min before I3
Description: (§1) The experimental method was manipulated as described in 2. At 30 min before the administration of I3, rats were intraperitoneally injected with 20 mg/kg of AMPK inhibitor Compound C, and the volume of the ipsilateral hemisphere infarct and the neurobehavioral score were determined at 48 h post-ischemia. Western blot analysis was performed on ischemic brain tissue to determine the content of phosphorylated AMPK (p-AMPK) in the cerebral cortex at the infarct side.

[1] = test system: rats with permanent middle cerebral artery occlusion; assay: Infarct volume in rats with permanent middle cerebral artery occlusion (pMCAO); type: in vivo, rat; details: for Infarction rate (%): 72 h after ischemia
Description: (§2) Experimental method: Surgical method was described as the operation method for the above tMCAO. The thread embolism remained in the brain of rats without pulling out, and rotarod performance was tested every day. Brains were taken out at 72 h after ischemia for the determination of infarct volume and neurobehavioral score. The process of the rotarod performance test was as follows: rats were placed on a rotating rod of which the speed was accelerated from 4 rpm up to the maximum speed of 40 rpm within 5 minutes. Rats were trained for 3 to 7 days before model establishment, the rotarod performance was tested at 1, 2 and 3 days after pMCAO, respectively, and the falling time of rats were recorded.
(§3) In FIG. 3, pMCAO model is established on male rats of 260 to 280 g (thread embolism is not pulled out, resulting in permanent ischemia), the administration method is the same as that in FIG. 2, and the infract volume, neurobehavioral scores and rotarod test were determined at 72 h after ischemia, as described above.

rats with tMCAO [2] = assay: Infarct volume (TTC staining) in rats with transient middle cerebral artery occlusion (tMCAO); type: in vivo, rat
Description: (§4) Experimental method: 75 SD male rats weighing 300±20 g were raised under the condition of 25° C. and relative humidity of 60% to 75% for 1 week for experiment. Rats were randomized into 5 groups: sham group, vehicle group, drug administration group at 24 h after ischemia, drug administration group at 6 h after ischemia, drug administration group at 4 h after ischemia, respectively, with 15 animals in each group.
(§5) Establishment of transient middle cerebral artery occlusion (tMCAO) rat model: The rats were anesthetized by intraperitoneal injection of chloral hydrate, and lying on an operating table with limbs fixed with string. […] ECA was ligated and cut off, ICA was clamped at the distal end with an arterial clip, and then a small opening was cut at the intersection of ECA and ICA near the ECA. A nylon thread with paraffin coated on one end was inserted from the small cut opening into the internal carotid artery at the intersection of the internal and external carotid arteries and further into the anterior cerebral artery at the proximal end, to block the blood supply to the middle cerebral artery on this side. At 120 minutes after ischemia, the nylon thread was withdrawn at the incision of the external carotid artery to achieve the reperfusion of the middle cerebral artery. The room temperature during surgery was controlled at 25 to 27° C.
(§6) Administration method: administrating after surgery with a concentration of 1 mg/kg. Drug administration group at 4 h after ischemia was administrated at 4 h after ischemia, and once again after 24 h. Drug administration group at 6 h after ischemia was administrated at 6 h after ischemia, and once again after 24 h. Drug administration group at 24 h after ischemia was administrated once at 24 h after ischemia.
(§7) After the time window for administration of 13 was determined, administration at 4 hour post-ischemia was selected as the subsequent testing time point. 95 SD male rats were randomized into 7 groups: sham group, vehicle group, NBP group, Telm group, NBP+Telm group, 13 group and edaravone group, respectively. The surgical procedure was as described above, NBP (1 mg/kg), Telm (1 mg/kg), NBP (1 mg/kg)+Telm (1 mg/kg), 13 (1 mg/kg) and edaravone (3 mg/kg) were administrated at 4 hour post-ischemia, and once again at 24 h, respectively. The infarct volume and neurobehavioral score were determined at 48 h post-ischemia.
At 48 h post-ischemia, the rats were anesthetized with pentobarbital sodium, decapitated to get brain quickly, olfactory bulb, cerebellum and lower brain stem were removed, and coronal was cut into 6 slices. Then the brain slices were placed in the solution containing 4% TTC and 1 mol/L of K2HPO4, incubated at 37° C. for 30 min in the dark, during which the brain slices were flipped every 7 to 8 min. […] Images were taken after staining, and the infarct volume was calculated using an image analysis software. The percentage of infarct volume is calculated by the following formula: infarct area/total brain cross-sectional area×100%.
as §1
(§8) In FIG. 2, tMCAO models are established in male rats of 260 to 280 g (thread embolism is pulled out from the rats after 2 hour ischemia, resulting in reperfusion), 13 compound (1 mg/kg) is intravenously injected at 4 h post-ischemia, and intravenously injected again at 24 h post-ischemia. […]

rats with tMCAO [3] = assay: Neurobehavioral function score in tMCAO rats; type: in vivo, rat
Description: as §4, §5, §6, §7
The neurobehavioral function score of tMCAO rats were scored at 48 h after ischemia. Criteria for scoring is as follows: 0 point, no symptoms of nerve damage; 1 point, inability of fully extending forepaw at the healthy side; 2 points, circling to the healthy side; 3 points, tilting toward the healthy side; 4 points, inability of spontaneous walking and losing consciousness.
as §1, §8

[4] = test system: rats with permanent middle cerebral artery occlusion; assay: Rotarod performance test in pMCAO rats; type: in vivo, rat; details: in s (unit assumed)
Description: as §2, §3

[5] = test system: rats with permanent middle cerebral artery occlusion; assay: Neurobehavioral score in pMCAO rats; type: in vivo, rat; details: for Neurobehavioral score: 72 h after ischemia
Description: as §2, §3

Nrf2 = assay: Neh2-Luciferase reporter assay for Nrf2 activation in BV2 cells; type: cell-based; details: for activity of intracellular Nrf2 (luciferase): 24 h incubation, BV2 cells
Description: BV2 cells were transfected with Neh2-Luciferase reporter gene plasmid for 6 h, replaced a normal serum-containing medium and cultured for 24 h, then incubated with drug for 24 h, and treated with Reporter Lysis Buffer for 20 min. The Reporter Lysis Buffer was added to a 96-well plate, and the activity of luciferase was measured.
(§9) In FIGS. 1A and 1B, mouse primary microglia are pre-incubated with 1 μM or 5 μM of test compounds for 3 hours, then stimulated with LPS for 5 hours, and the protein content of pro-inflammatory factor TNF-α is determined by ELISA method. In FIG. 1C, the activations of the compounds on Nrf2 are tested by Luciferase Reporter Assay.

TNF-α = assay: LPS-induced TNF-α release in mouse primary microglia (ELISA); type: cell-based; details: 1 μM or 5 μM drug pre-administrated 3 h, then 100 ng/mL LPS 5 h; supernatant ELISA
Description: The primary microglia were extracted from the brain of mouse and cultured, were pre-administrated with 1 μM or 5 μM drugs for 3 h, and then stimulated with 100 ng/mL lipopolysaccharide (LPS) for 5 h. The supernatant of cell culture was extracted, and the expression level of TNF-α in the supernatant was determined by ELISA method.
as §9

[6] = administrated at 4 h post-ischemia and again at 24 h, 1 mg/kg (edaravone 3 mg/kg), determined 48 h post-ischemia
[7] = tMCAO rats, comparison groups, administrated at 4 h post-ischemia and again at 24 h, 1 mg/kg (edaravone 3 mg/kg), scored 48 h

With c1cc(-c2cnn3cc(-c4ccc(OCCN5CCCCC5)cc4)cnc23)ccn1 [Compound C, reference compound] the “AMPK activity (p-AMPK content in cerebral cortex at the infarct side)” value (AMPK) was “inhibit the increase of AMPK activity induced by I3”.

For CC1=NN(c2ccccc2)C(=O)C1 [Edaravone, reference compound], the “Infarction rate (%)” value [1] was 16.7%, the “Infarction rate (%)” value (rats with tMCAO [2]; [6]) was 6.183% and the Neurobehavioral score (rats with tMCAO [3]; [7]) was 1.556. The Falling time ([4]; Before modeling (baseline)) was 292.17, the Falling time ([4]; Day 1 after pMCAO) was 56.33 and the Falling time ([4]; Day 2 after pMCAO) was 64.00. For the same compound, the Falling time ([4]; Day 3 after pMCAO) was 74.00 and the Neurobehavioral score [5] was 1.7.

Compound CCCCC(OC(C)=O)c1ccccc1C(=O)OCCCCOC(=O)c1ccccc1-c1ccc(Cn2c(CCC)nc3c(C)cc(-c4nc5ccccc5n4C)cc32)cc1 (stereo not shown) [I2, 4-O-{2-[(1-acetoxyl)n-pentyl]benzoyl}butanediol telmisartan ester] has a melting point of 83 °C.

With CCCCC(OC(C)=O)c1ccccc1C(=O)NCCCCCCCCNC(=O)c1ccccc1-c1ccc(Cn2c(CCC)nc3c(C)cc(-c4nc5ccccc5n4C)cc32)cc1 (stereo not shown) [I3, 8-N-{2-[(1-acetoxyl)n-pentyl]benzoyl}octanediamine telmisartan amide] the “Infarction rate (%)” value [1] was 12.48%, the infarct volume ([1]; in words) was “significantly reduced the infarct volume” and the “Infarction rate (%)” value (rats with tMCAO [2]; 1 mg/kg administrated at 6 h after ischemia and once again after 24 h, determined 48 h post-ischemia) was 13.07%. The “Infarction rate (%)” value (rats with tMCAO [2]; 1 mg/kg administrated once at 24 h after ischemia, determined 48 h post-ischemia) was 20.72%, the “infarct volume compared with NBP group, Telm group and NBP+Telm group” value (rats with tMCAO [2]; 4 h post-ischemia) was “more pronounced effect on reducing the infarct volume” and the “Infarction rate (%)” value (rats with tMCAO [2]; I3 1 mg/kg i.v. at 4 h after ischemia, with or without Compound C 20 mg/kg i.p. 30 min before, 48 h post-ischemia) was 6.655%. For the same compound, the “Infarction rate (%)” value (rats with tMCAO [2]; [6]) was 6.655%, the “infarct volume compared with vehicle group” value (rats with tMCAO [2]; administrating at each time point (4 h, 6 h, 24 h)) was “significantly reduced the infarct volume” and the “neurological function score compared with vehicle group” value (rats with tMCAO [3]; tMCAO (I/R) rats, administration at each time point) was “significantly reduced ischemia-induced neurological function score”. The Neurobehavioral score (rats with tMCAO [3]; tMCAO rats, 1 mg/kg, administrated after 4 h (time-window groups), scored 48 h after ischemia (0-4 points)) was 2.385, the Neurobehavioral score (rats with tMCAO [3]; tMCAO rats, 1 mg/kg, administrated after 6 h, scored 48 h after ischemia (0-4 points)) was 1.867 and the Neurobehavioral score (rats with tMCAO [3]; tMCAO rats, 1 mg/kg, administrated after 24 h, scored 48 h after ischemia (0-4 points)) was 1.182. The “neurological function compared with NBP, Telm and NBP+Telm” value (rats with tMCAO [3]; tMCAO rats, 4 h post-ischemia) was “more pronounced effect on improving the neurological function”, the Neurobehavioral score (rats with tMCAO [3]; tMCAO rats, I3 1 mg/kg i.v. at 4 h after ischemia, with or without Compound C 20 mg/kg i.p. 30 min before, 48 h post-ischemia) was 1.182 and the Neurobehavioral score (rats with tMCAO [3]; [7]) was 1.182. For the same compound, the “activity of intracellular Nrf2 (luciferase)” value (“activity of intracellular Nrf2” below) (Nrf2; 1 μM) was “significantly activate the activity of intracellular Nrf2”, the “activity of intracellular Nrf2” value (Nrf2; 10 μM) was “significantly activate the activity of intracellular Nrf2” and the Falling time ([4]; Before modeling (baseline)) was 279.10. For the same compound, the Falling time ([4]; Day 1 after pMCAO) was 68.63, the Falling time ([4]; Day 2 after pMCAO) was 94.00 and the Falling time ([4]; Day 3 after pMCAO) was 125.13. The “LPS-induced TNF-α release in mouse primary microglia” value (TNF-α) was “significantly inhibit LPS-induced TNF-α release”, the Neurobehavioral score [5] was 1.6 and the neurobehavioral impairment ([5]; in words) was “improved neurobehavioral impairment”. The “AMPK activity (p-AMPK content in cerebral cortex at the infarct side)” value (AMPK) was “increase of AMPK activity” and the melting point was 94 to 95 °C.

With CCCCC(OC(C)=O)c1ccccc1C(=O)OCCCCCOC(=O)c1ccccc1-c1ccc(Cn2c(CCC)nc3c(C)cc(-c4nc5ccccc5n4C)cc32)cc1 (stereo not shown) [I4, 5-O-{2-[(1-acetoxyl)n-pentyl]benzoyl}pentanediol telmisartan ester] the melting point was 78 to 79 °C.

Compound CCCCC(OC(C)=O)c1ccccc1C(=O)OCCCCCCOC(=O)c1ccccc1-c1ccc(Cn2c(CCC)nc3c(C)cc(-c4nc5ccccc5n4C)cc32)cc1 (stereo not shown) [I5, 6-O-{2-[(1-acetoxyl)n-pentyl]benzoyl}hexanediol telmisartan ester] has a melting point of 82 to 83 °C.

Work on CCCCC(OC(C)=O)c1ccccc1C(=O)OCCCCCCCCOC(=O)c1ccccc1-c1ccc(Cn2c(CCC)nc3c(C)cc(-c4nc5ccccc5n4C)cc32)cc1 (stereo not shown) [I6, 8-O-{2-[(1-acetoxyl)n-pentyl]benzoyl}octanediol telmisartan ester] yielded a melting point of 83 to 84 °C.

In the case of CCCCC(OC(C)=O)c1ccccc1C(=O)NCCCCCCNC(=O)c1ccccc1-c1ccc(Cn2c(CCC)nc3c(C)cc(-c4nc5ccccc5n4C)cc32)cc1 (stereo not shown) [I7, 6-N-{2-[(1-acetoxyl)n-pentyl]benzoyl}hexanediamine telmisartan amide], the “activity of intracellular Nrf2” value (Nrf2; 10 μM) is reported as “significantly activate the activity of intracellular Nrf2” and the melting point is reported as 96 to 98 °C.

For CCCCC(OC(C)=O)c1ccccc1C(=O)NCCCCNC(=O)c1ccccc1-c1ccc(Cn2c(CCC)nc3c(C)cc(-c4nc5ccccc5n4C)cc32)cc1 (stereo not shown) [I8, 4-N-{2-[(1-acetoxyl)n-pentyl]benzoyl}butanediamine telmisartan amide], the “activity of intracellular Nrf2” value (Nrf2; 10 μM) was “significantly activate the activity of intracellular Nrf2” and the melting point was 97 to 99 °C.

CCCCc1nc(C)c(C(=O)NCCCCCCCCNC(=O)c2ccccc2C(CCCC)OC(C)=O)n1Cc1ccc(-c2ccccc2-c2nnn[nH]2)cc1 (stereo not shown) [I17] showed a melting point of 197 to 199 °C.

With CCCCC1OC(=O)c2ccccc21 (stereo not shown) [NBP, Butylphthalide] the “Infarction rate (%)” value (rats with tMCAO [2]; [6]) was 20.99% and the Neurobehavioral score (rats with tMCAO [3]; [7]) was 2.7.

With Cc1c(-c2cnccn2)ssc1=S [Oltipraz, reference compound] the “activation of Nrf2” value (Nrf2; concentration not given) was “significantly promote the activation of Nrf2”.

In the case of CCCc1nc2c(C)cc(-c3nc4ccccc4n3C)cc2n1Cc1ccc(-c2ccccc2C(=O)O)cc1 [Telm, Telmisartan], the “Infarction rate (%)” value (rats with tMCAO [2]; [6]) is reported as 11.57% and the Neurobehavioral score (rats with tMCAO [3]; [7]) is reported as 1.
